{"source": "ChEMBL document CHEMBL4507291", "about": "(2021)", "key": {"[1]": {"molecular_target": "Ephrin type-A receptor 5 (Homo sapiens) (UniProt P54756)", "assay": "EPHA5 Kinase screen", "conditions": "Compound concentration 1.0 uM"}, "[2]": {"molecular_target": "Vasopressin V2 receptor (Homo sapiens) (UniProt P30518)", "sequence (P30518 whole entry)": "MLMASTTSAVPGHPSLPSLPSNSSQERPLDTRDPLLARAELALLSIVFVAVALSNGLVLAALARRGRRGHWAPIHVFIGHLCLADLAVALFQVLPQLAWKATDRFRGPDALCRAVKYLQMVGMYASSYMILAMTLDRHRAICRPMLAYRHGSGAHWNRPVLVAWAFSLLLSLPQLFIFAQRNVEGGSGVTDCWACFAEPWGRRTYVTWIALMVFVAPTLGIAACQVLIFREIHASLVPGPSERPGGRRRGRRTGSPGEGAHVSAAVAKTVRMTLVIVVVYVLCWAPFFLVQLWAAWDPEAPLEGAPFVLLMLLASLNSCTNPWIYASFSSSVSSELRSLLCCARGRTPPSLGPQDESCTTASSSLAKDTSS", "assay": "Inhibition of Vasopressin V2 at 10 µM in the Eurofins-Panlabs radioligand binding assay (Eurofins_assay_287610)", "design": "ligand concentration 4 nM", "conditions": "Compound concentration 10.0 uM"}, "[3]": {"molecular_target": "Vascular endothelial growth factor receptor 3 (Homo sapiens) (UniProt P35916)", "assay": "FLT4 (VEGFR3) Kinase screen", "conditions": "Compound concentration 1.0 uM"}, "[4]": {"molecular_target": "T1, Protein kinase C iota type (Homo sapiens) (UniProt P41743)", "T1 sequence (whole entry)": "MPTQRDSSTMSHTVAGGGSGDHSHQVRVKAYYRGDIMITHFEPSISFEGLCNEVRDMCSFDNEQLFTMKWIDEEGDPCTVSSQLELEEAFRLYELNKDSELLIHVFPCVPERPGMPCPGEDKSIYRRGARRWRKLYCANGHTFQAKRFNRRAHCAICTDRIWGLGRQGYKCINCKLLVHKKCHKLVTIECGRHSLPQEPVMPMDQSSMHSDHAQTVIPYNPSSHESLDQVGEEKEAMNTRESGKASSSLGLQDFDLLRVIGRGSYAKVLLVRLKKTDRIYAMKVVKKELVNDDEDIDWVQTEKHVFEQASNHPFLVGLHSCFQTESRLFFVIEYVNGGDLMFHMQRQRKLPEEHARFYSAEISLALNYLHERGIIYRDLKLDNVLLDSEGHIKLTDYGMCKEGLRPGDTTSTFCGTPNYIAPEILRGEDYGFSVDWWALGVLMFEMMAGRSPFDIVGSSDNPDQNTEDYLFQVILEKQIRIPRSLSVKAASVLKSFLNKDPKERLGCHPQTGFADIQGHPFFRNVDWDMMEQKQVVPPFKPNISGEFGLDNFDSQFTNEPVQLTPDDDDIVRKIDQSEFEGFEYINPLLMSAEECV", "assay": "PRKCI (PKC iota) Kinase screen", "conditions": "Compound concentration 1.0 uM"}, "[5]": {"molecular_target": "Dual specificity protein kinase CLK2 (Homo sapiens) (UniProt P49760)", "assay": "CLK2 Kinase screen", "conditions": "Compound concentration 1.0 uM"}, "[6]": {"molecular_target": "Cyclin-dependent kinase 1/cyclin B (Homo sapiens) (UniProt P06493+P14635+Q8WWL7+O95067)", "assay": "CDK1/cyclin B Kinase screen", "assay_type": "protein-complex assay", "conditions": "Compound concentration 1.0 uM"}, "[7]": {"molecular_target": "Serine/threonine-protein kinase pim-1 (Homo sapiens) (UniProt P11309)", "assay": "PIM1 Kinase screen", "conditions": "Compound concentration 1.0 uM"}, "[8]": {"molecular_target": "Dual specificity tyrosine-phosphorylation-regulated kinase 3 (Homo sapiens) (UniProt O43781)", "sequence (O43781 whole entry)": "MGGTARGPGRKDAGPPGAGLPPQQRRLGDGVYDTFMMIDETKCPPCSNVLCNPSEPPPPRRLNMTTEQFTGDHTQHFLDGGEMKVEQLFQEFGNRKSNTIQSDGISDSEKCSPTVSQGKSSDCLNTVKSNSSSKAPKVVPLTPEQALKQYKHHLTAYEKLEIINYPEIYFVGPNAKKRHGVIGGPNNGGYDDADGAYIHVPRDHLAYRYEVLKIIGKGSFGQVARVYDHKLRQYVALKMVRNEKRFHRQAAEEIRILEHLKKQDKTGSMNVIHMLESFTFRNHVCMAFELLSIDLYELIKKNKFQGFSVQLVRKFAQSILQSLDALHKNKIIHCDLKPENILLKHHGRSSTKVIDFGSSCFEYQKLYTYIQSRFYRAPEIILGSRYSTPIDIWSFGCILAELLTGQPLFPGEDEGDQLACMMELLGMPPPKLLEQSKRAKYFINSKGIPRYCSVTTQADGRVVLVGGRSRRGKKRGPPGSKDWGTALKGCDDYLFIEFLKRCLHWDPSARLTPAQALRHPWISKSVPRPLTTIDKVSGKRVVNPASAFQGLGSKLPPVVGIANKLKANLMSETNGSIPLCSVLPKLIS", "assay": "DYRK3 Kinase screen", "conditions": "Compound concentration 1.0 uM"}, "[9]": {"molecular_target": "Melanocortin receptor 3 (Homo sapiens) (UniProt P41968)", "sequence (P41968 whole entry)": "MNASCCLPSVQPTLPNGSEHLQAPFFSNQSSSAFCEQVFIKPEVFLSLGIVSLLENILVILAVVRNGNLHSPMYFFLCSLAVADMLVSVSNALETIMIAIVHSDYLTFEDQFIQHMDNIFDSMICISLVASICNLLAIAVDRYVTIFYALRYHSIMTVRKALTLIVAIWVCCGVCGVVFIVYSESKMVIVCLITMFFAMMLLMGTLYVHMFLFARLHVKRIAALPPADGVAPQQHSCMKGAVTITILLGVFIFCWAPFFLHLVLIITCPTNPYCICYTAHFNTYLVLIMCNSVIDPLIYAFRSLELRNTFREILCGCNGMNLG", "assay": "Inhibition of Melanocortin MC3 at 10 µM in the Eurofins-Panlabs radioligand binding assay (Eurofins_assay_251300)", "design": "ligand concentration 0.035 nM", "conditions": "Compound concentration 10.0 uM"}, "[10]": {"molecular_target": "Ephrin type-A receptor 7 (Homo sapiens) (UniProt Q15375)", "sequence (Q15375 28-998 limits assumed)": "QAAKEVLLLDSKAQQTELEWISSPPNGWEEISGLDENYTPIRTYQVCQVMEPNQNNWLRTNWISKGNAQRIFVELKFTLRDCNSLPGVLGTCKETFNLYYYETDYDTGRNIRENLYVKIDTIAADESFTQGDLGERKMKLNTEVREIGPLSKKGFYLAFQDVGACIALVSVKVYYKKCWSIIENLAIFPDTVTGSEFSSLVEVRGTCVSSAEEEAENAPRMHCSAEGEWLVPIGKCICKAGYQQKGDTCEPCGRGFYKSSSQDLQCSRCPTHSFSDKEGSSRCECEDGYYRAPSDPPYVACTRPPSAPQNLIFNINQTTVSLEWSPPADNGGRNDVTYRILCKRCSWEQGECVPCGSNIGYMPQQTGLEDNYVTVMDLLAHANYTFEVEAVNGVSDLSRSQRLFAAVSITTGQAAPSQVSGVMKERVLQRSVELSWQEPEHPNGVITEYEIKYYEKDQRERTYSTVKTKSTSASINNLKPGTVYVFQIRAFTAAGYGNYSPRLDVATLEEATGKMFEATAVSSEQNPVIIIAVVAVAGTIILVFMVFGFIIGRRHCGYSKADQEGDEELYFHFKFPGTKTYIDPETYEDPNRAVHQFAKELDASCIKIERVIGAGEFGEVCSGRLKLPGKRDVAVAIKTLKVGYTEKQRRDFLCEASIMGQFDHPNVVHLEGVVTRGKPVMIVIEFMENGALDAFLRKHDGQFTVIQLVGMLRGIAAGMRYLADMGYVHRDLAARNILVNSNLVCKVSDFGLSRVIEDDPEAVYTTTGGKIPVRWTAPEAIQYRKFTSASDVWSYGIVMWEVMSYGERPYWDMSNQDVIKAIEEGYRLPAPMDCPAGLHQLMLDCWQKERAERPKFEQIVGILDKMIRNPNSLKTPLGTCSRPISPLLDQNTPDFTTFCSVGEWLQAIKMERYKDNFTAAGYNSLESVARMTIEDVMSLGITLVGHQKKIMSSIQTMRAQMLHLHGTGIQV", "assay": "EPHA7 Kinase screen", "conditions": "Compound concentration 1.0 uM"}, "[11]": {"tested_on": "Epidermal growth factor receptor (Homo sapiens), P00533 [L858R,T790M]", "assay": "EGFR (ErbB1) T790M L858R Kinase screen", "conditions": "Compound concentration 1.0 uM"}, "[12]": {"molecular_target": "Receptor-type tyrosine-protein kinase FLT3 (Homo sapiens) (UniProt P36888)", "assay": "FLT3 Kinase screen", "conditions": "Compound concentration 1.0 uM"}, "[13]": {"molecular_target": "Glycogen synthase kinase-3 alpha (Homo sapiens) (UniProt P49840)", "sequence (P49840 2-483 limits assumed)": "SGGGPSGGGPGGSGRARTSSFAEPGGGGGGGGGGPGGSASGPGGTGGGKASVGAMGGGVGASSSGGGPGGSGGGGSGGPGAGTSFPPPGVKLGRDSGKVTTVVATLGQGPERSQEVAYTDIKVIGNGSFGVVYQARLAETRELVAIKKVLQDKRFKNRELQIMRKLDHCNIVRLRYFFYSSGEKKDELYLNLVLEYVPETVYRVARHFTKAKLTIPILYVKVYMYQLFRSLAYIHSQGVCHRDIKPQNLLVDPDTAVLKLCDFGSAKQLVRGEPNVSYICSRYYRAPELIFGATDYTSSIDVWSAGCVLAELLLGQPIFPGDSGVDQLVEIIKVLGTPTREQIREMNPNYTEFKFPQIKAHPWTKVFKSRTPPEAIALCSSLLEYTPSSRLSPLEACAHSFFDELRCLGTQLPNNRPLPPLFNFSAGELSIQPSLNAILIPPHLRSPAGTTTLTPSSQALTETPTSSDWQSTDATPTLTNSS", "assay": "GSK3A (GSK3 alpha) Kinase screen", "conditions": "Compound concentration 1.0 uM"}, "[14]": {"molecular_target": "Cannabinoid receptor 2 (Homo sapiens) (UniProt P34972)", "sequence (P34972 whole entry)": "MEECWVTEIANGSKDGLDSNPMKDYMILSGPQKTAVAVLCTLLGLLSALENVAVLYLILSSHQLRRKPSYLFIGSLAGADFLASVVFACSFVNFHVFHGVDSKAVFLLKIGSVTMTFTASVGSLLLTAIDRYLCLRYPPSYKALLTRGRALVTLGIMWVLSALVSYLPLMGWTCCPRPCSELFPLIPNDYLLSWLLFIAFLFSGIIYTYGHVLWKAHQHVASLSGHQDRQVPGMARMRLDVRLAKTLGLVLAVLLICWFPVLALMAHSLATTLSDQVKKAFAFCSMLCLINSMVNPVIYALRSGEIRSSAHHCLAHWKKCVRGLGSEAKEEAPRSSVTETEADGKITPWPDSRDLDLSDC"}, "[15]": {"molecular_target": "Fibroblast growth factor receptor 2 (Homo sapiens) (UniProt P21802)", "assay": "FGFR2 Kinase screen", "conditions": "Compound concentration 1.0 uM"}, "[16]": {"molecular_target": "Calcium/calmodulin-dependent protein kinase type II subunit delta (Homo sapiens) (UniProt Q13557)", "assay": "CAMK2D (CaMKII delta) Kinase screen", "conditions": "Compound concentration 1.0 uM"}, "[17]": {"molecular_target": "5-hydroxytryptamine receptor 2B (Homo sapiens, UniProt P41595)", "sequence (P41595 whole entry)": "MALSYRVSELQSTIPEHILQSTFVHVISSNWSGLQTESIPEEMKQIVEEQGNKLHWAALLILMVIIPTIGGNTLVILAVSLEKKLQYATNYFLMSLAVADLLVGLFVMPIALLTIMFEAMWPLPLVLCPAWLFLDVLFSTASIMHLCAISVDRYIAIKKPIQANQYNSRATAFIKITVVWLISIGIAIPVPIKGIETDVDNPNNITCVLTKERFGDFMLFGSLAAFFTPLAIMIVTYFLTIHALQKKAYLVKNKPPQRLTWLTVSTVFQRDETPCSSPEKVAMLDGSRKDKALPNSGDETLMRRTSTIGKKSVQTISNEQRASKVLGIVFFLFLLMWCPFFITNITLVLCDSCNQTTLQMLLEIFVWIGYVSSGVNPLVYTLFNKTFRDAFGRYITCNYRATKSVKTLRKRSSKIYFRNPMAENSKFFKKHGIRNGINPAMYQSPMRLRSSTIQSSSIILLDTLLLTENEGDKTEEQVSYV"}, "[18]": {"molecular_target": "Death-associated protein kinase 3 (Homo sapiens) (UniProt O43293)", "sequence (O43293 whole entry, looked up)": "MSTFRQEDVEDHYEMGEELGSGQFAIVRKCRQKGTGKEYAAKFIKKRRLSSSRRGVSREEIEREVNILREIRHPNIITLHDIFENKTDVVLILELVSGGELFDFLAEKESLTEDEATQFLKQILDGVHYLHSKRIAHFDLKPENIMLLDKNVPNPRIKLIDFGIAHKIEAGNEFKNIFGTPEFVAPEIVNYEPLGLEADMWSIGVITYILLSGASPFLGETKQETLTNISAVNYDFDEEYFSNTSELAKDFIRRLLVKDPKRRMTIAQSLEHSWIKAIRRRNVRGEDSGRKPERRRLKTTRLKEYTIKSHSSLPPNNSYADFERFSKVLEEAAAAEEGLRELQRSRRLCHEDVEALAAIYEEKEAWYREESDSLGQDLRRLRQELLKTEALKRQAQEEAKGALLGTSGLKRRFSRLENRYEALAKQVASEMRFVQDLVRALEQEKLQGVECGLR", "assay": "DAPK3 (ZIPK) Kinase screen", "conditions": "Compound concentration 1.0 uM"}, "[19]": {"molecular_target": "High affinity nerve growth factor receptor (Homo sapiens) (UniProt P04629)", "sequence (P04629 33-796 limits assumed)": "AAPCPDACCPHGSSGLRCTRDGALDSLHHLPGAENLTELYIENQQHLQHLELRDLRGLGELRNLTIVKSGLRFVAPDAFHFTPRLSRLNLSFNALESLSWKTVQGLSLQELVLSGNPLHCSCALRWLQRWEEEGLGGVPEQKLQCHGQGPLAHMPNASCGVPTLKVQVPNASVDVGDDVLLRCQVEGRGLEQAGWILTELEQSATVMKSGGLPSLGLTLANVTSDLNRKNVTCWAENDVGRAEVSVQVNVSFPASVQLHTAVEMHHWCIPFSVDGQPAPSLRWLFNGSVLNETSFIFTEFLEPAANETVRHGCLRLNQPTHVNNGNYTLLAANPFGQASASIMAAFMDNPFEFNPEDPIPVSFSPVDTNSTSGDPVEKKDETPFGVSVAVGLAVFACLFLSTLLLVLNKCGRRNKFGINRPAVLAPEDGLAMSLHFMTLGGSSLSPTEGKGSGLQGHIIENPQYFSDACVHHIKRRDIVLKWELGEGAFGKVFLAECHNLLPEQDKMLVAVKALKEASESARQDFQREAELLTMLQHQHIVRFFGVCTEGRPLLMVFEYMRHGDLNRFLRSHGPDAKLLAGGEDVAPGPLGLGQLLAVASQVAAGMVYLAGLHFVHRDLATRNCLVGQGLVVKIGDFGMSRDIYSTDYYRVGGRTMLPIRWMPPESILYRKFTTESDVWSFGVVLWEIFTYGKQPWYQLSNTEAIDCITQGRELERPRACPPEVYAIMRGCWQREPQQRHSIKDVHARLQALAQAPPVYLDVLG", "assay": "NTRK1 (TRKA) Kinase screen", "conditions": "Compound concentration 1.0 uM"}, "[20]": {"molecular_target": "T2, Mitogen-activated protein kinase 13 (Homo sapiens) (UniProt O15264)", "T2 sequence (whole entry)": "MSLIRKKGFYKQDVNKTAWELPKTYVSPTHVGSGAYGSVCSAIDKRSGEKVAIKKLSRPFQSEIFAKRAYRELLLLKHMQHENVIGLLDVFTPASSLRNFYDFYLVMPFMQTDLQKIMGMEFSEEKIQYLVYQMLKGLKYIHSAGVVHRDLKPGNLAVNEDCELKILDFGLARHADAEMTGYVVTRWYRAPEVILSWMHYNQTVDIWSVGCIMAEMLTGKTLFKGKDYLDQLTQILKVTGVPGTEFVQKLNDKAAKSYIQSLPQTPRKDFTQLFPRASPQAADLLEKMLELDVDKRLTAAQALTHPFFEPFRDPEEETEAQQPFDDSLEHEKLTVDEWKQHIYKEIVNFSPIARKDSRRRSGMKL", "assay": "MAPK13 (p38 delta) Kinase screen", "conditions": "Compound concentration 1.0 uM"}, "[21]": {"molecular_target": "Ribosomal protein S6 kinase beta-1 (Homo sapiens) (UniProt P23443)", "assay": "RPS6KB1 (p70S6K) Kinase screen", "conditions": "Compound concentration 1.0 uM"}, "[22]": {"molecular_target": "Mitogen-activated protein kinase 14 (Homo sapiens) (UniProt Q16539)", "assay": "MAPK14 (p38 alpha) Kinase screen", "conditions": "Compound concentration 1.0 uM"}}}
{"compound": "C[C@@H]1CN(c2cc(-c3n[nH]c4ccc(OC5(C)CC5)cc34)ncn2)C[C@H](C)O1", "note": "[MLi-2]", "values": [{"measurement": "inhibition", "setting": "[1]", "result": 5.05, "unit": "%"}, {"measurement": "inhibition", "setting": "[2]", "result": 9, "unit": "%"}, {"measurement": "inhibition", "setting": "[3]", "result": 8.71, "unit": "%"}, {"measurement": "inhibition", "setting": "[4]", "result": -0.512, "unit": "%"}, {"measurement": "inhibition", "setting": "[5]", "result": 55, "unit": "%"}, {"measurement": "inhibition", "setting": "[6]", "result": 1.29, "unit": "%"}, {"measurement": "inhibition", "setting": "[7]", "result": -2.73, "unit": "%"}, {"measurement": "inhibition", "setting": "[8]", "result": 2.54, "unit": "%"}, {"measurement": "inhibition", "setting": "[9]", "result": -2, "unit": "%"}, {"measurement": "inhibition", "setting": "[10]", "result": 8.11, "unit": "%"}, {"measurement": "inhibition", "setting": "[11]", "result": 2.37, "unit": "%"}, {"measurement": "inhibition", "setting": "[12]", "result": 2.53, "unit": "%"}, {"measurement": "inhibition", "setting": "[13]", "result": 0.0184, "unit": "%"}, {"measurement": "inhibition", "setting": "[14]; Compound concentration 3.0 uM", "result": 2, "unit": "%"}, {"measurement": "inhibition", "setting": "[14]; Compound concentration 10.0 uM", "result": 2, "unit": "%"}, {"measurement": "inhibition", "setting": "[15]", "result": -3.35, "unit": "%"}, {"measurement": "inhibition", "setting": "[16]", "result": 23.9, "unit": "%"}, {"measurement": "inhibition", "setting": "[17]; Compound concentration 0.01 uM", "result": -7, "unit": "%"}, {"measurement": "inhibition", "setting": "[17]; Compound concentration 0.1 uM", "result": 8, "unit": "%"}, {"measurement": "inhibition", "setting": "[17]; Compound concentration 1.0 uM", "result": 44, "unit": "%"}, {"measurement": "inhibition", "setting": "[17]; Compound concentration 10.0 uM", "result": 95, "unit": "%"}, {"measurement": "inhibition", "setting": "[18]", "result": 5.27, "unit": "%"}, {"measurement": "inhibition", "setting": "[19]", "result": 0.799, "unit": "%"}, {"measurement": "inhibition", "setting": "[20]", "result": 4.25, "unit": "%"}, {"measurement": "inhibition", "setting": "[21]", "result": 5.26, "unit": "%"}, {"measurement": "inhibition", "setting": "[22]", "result": -6.52, "unit": "%"}]}
